Assay results taken from ChEMBL document CHEMBL4387715, “Singlet oxygen-activatable Paclitaxel prodrugs via intermolecular activation for combined PDT and chemotherapy” (Bioorg Med Chem Lett, 2019).
The source made the active and inactive calls. The calls are words filed in the database; no cut-off is given here.

Experiments:
[1] = Lipophilicity, log D of the compound at pH 7.4 by shake flask method; type: physicochemical; details: buffer
[2] = Dark toxicity in rat AY27 cells assessed as reduction in cell viability at 0.025 to 1.25 uM preincubated for 2 hrs followed by 30 mins incubation under dark condition measured after 24 hrs in presence of Hexyl-5-aminolevulinic acid by MTT assay; type: cell-based; details: ay-27, 1.25 µM
[3] = system: AY-27; test: Photocytotoxicity against rat AY27 cells assessed as cell death at 0.025 to 1.25 uM incubated for 2 hrs followed by 10 mW/cm2 laser light irradiation for 30 mins and measured after 24 hrs by MTT assay; type: functional, cell-based
[4] = Photocytotoxicity against rat AY27 cells assessed as cell death at 0.25 uM incubated for 2 hrs followed by 10 mW/cm2 laser light irradiation for 30 mins and measured after 24 hrs in presence of Hexyl-5-aminolevulinic acid by MTT assay relative to control; type: functional, AY-27
[5] = Dark toxicity in rat AY27 cells assessed as reduction in cell viability at 0.025 to 1.25 uM preincubated for 2 hrs followed by 30 mins incubation under dark condition and measured after 24 hrs by MTT assay; type: cell-based; details: ay-27, 1.25 µM
[6] = Lipophilicity, log D of the compound at pH 7.4; type: physicochemical; details: buffer
[7] = Drug uptake in rat AY27 cells assessed per cell at 5 uM measured after 120 mins by fluorescence assay; type: ADME, cell-based; details: ay-27, 2 h
[8] = Drug uptake in rat AY27 cells at 1 uM by texas red probe-based fluorescence microscopy; type: ADME, cell-based; details: ay-27, 1 µM, TDE = time-dependent effect
[9] = Drug localization in mitochondria of rat AY27 cells at 0.5 uM after 30 mins by Mitotracker deep Red staining-based confocal fluorescence microscopy; type: ADME; details: ay-27, 0.5 h
[10] = Photodynamic anticancer activity against rat AY27 cells assessed as cell death at 0.5 uM incubated for 2 hrs followed by 10 mW/cm2 laser light irradiation for 30 mins and measured after 24 hrs by MTT assay relative to control; type: functional, AY-27
[11] = Drug localization in mitochondria of rat AY27 cells at 0.5 uM assessed as protoporphyrin IX level after 2 hrs by Mitotracker deep Red staining-based confocal fluorescence microscopic method; type: ADME; details: ay-27, 2 h

logD [6] | SMILES | logD [1] | Activity [2] | Activity [3] | Activity [4] | Activity [5] | Drug uptake [7] | Drug uptake [8] | Drug uptake [9] | Activity [10] | Drug uptake [11]
– | CC(=O)O[C@H]1C(=O)[C@@]2(C)[C@H]([C@H](OC(=O)c3ccccc3)[C@]3(O)C[C@H](OC(=O)C(OC(=O)/C=C/N4CCC(COC(=O)c5cc[n+](C)cc5)CC4)[C@@H](NC(=O)c4ccccc4)c4ccccc4)C(C)=C1C3(C)C)[C@]1(OC(C)=O)CO[C@@H]1C[C@@H]2O.[Cl-] (stereo partly specified) | 1 | Non-Toxic | inactive | 82% | Non-Toxic | – | – | – | – | –
3.6 | CC(=O)O[C@H]1C(=O)[C@@]2(C)[C@H]([C@H](OC(=O)c3ccccc3)[C@]3(O)C[C@H](OC(=O)[C@H](O)[C@@H](NC(=O)c4ccccc4)c4ccccc4)C(C)=C1C3(C)C)[C@]1(OC(C)=O)CO[C@@H]1C[C@@H]2O [PACLITAXEL] | – | – | – | – | – | – | – | – | – | –
– | CCN(CC)c1ccc2c(-c3ccccc3C(=O)OCC3CCN(/C=C/C(=O)OC(C(=O)O[C@H]4C[C@@]5(O)[C@@H](OC(=O)c6ccccc6)[C@@H]6[C@]7(OC(C)=O)CO[C@@H]7C[C@H](O)[C@@]6(C)C(=O)[C@H](OC(C)=O)C(=C4C)C5(C)C)[C@@H](NC(=O)c4ccccc4)c4ccccc4)CC3)c3ccc(=[N+](CC)CC)cc-3oc2c1.[Cl-] (stereo partly specified) | 1.9 | Non-Toxic | inactive | 84% | Non-Toxic | 0.68 fmol | Tde | Active | – | –
– | CCCCCCOC(=O)CCC(=O)CN [HEXAMINOLEVULINATE] | – | – | – | – | – | – | – | – | 40% | Active
– | CC(=O)O[C@H]1C(=O)[C@@]2(C)[C@H]([C@H](OC(=O)c3ccccc3)[C@]3(O)C[C@H](OC(=O)C(OC(=O)/C=C/N4CCC(COCCC[P+](c5ccccc5)(c5ccccc5)c5ccccc5)CC4)[C@@H](NC(=O)c4ccccc4)c4ccccc4)C(C)=C1C3(C)C)[C@]1(OC(C)=O)CO[C@@H]1C[C@@H]2O.[Br-] (stereo partly specified) | 1.3 | Non-Toxic | inactive | 80% | Non-Toxic | – | – | – | – | –
